Target: Eukaryotic translation initiation factor 4 gamma 1 (Homo sapiens, UniProt Q04637)
Assay: eIF4E–eIF4G protein interaction inhibitors, dose response, biochemical, TR-FRET (AID 855)

Eukaryotic translation initiation factor 4 gamma 1, sequence (Q04637 whole entry): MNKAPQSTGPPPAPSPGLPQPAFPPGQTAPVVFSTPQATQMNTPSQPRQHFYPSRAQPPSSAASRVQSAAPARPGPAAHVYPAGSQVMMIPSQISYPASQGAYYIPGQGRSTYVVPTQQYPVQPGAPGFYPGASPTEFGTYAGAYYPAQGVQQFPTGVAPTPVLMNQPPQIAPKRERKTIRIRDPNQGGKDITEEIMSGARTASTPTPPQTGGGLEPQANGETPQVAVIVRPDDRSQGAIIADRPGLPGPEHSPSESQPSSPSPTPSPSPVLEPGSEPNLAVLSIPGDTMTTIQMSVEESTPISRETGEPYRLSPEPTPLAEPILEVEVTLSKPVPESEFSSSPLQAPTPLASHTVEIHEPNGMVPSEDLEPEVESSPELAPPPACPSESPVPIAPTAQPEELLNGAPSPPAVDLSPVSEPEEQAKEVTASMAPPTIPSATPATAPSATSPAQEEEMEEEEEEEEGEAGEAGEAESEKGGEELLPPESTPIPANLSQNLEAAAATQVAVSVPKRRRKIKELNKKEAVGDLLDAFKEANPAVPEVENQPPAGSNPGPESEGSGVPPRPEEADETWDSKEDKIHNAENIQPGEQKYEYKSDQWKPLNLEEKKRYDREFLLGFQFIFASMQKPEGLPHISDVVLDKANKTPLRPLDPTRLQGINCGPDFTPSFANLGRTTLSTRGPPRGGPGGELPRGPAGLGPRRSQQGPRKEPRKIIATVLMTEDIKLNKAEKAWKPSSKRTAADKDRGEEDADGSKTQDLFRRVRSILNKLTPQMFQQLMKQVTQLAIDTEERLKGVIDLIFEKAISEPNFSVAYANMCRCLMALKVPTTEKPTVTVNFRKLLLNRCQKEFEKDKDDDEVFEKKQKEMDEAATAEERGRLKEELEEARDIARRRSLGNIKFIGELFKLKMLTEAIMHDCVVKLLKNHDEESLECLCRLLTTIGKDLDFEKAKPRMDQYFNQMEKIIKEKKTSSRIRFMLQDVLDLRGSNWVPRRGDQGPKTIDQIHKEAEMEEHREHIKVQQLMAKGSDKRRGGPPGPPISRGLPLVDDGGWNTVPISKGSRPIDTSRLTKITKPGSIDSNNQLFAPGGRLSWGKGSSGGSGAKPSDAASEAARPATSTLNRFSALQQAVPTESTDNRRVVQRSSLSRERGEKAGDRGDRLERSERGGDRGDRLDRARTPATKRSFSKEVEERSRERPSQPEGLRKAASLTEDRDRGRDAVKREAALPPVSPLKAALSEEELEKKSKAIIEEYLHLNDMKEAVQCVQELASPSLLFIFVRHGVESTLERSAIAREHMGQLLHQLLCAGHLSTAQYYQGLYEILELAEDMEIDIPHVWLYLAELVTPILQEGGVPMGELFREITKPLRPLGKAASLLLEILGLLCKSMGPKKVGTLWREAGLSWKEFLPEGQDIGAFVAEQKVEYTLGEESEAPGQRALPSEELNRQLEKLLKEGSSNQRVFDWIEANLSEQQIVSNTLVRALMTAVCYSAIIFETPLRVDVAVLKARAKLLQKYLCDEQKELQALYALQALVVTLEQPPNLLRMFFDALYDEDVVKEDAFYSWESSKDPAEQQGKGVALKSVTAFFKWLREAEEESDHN

Row | Compound | IC50 [µM]
1 | COc1ccc(Cc2c(O)n(-c3ccccc3)c(=O)[nH]c2=O)c(OC)c1 | > 64
2 | C=c1cc2[nH]c(=O)c(=Cc3cc(C)n(-c4ccccc4)c3C)c(=N)n2o1 | > 64
3 | COc1ccc(-c2cnnc(N=NCc3ccc(-c4ccc([N+](=O)[O-])cc4)o3)n2)cc1 | 50
4 | Oc1cc(N2CCN(Cc3ccc4c(c3)OCO4)CC2)c(O)n1-c1cccc(Cl)c1 [1-(3-chlorophenyl)-3-(4-piperonylpiperazino)pyrrolidine-2,5-quinone] | > 64
5 | O=C1Nc2ccc([N+](=O)[O-])cc2/C1=N/NC(=O)c1cc(-c2ccccc2Cl)nc2ccccc12 [2-(2-chlorophenyl)-N'-(2-keto-5-nitro-indol-3-yl)cinchoninohydrazide] | > 64
6 | CC(=O)C1=C(c2ccccc2)OC(=N)C(C#N)C1c1ccc(O)cc1 (configuration not stated) [2-azanyl-5-ethanoyl-4-(4-hydroxyphenyl)-6-phenyl-4H-pyran-3-carbonitrile] | > 64
7 | CC(C)(C)c1[nH]nc2c1C(c1ccc(OC(=O)c3ccco3)cc1)C(C#N)C(=N)O2 (configuration not stated) [2-furancarboxylic acid [4-(6-amino-3-tert-butyl-5-cyano-2,4-dihydropyrano[2,3-c]pyrazol-4-yl)phenyl] ester] | > 64
8 | CSc1ccc(CN=Nc2cccc(C(=O)O)c2)cc1 [3-[(N'E)-N'-[4-(methylthio)benzylidene]hydrazino]benzoic acid] | 50
9 | O=C1CCCC(=O)C1C(C#Cc1ccccc1)C1C(=O)CCCC1=O [3-hydroxy-2-[1-(2-hydroxy-6-keto-cyclohexen-1-yl)-3-phenyl-prop-2-ynyl]cyclohex-2-en-1-one] | > 64
10 | Cc1cc(CN=Nc2ccc([N+](=O)[O-])cn2)c(C)n1-c1ccc(C(=O)O)cc1 [4-{2,5-dimethyl-3-[2-(5-nitro-2-pyridinyl)carbonohydrazonoyl]-1H-pyrrol-1-yl}benzoic acid] | 50
11 | O=C1CCCC2=Nc3[nH]c(=S)[nH]c(=O)c3C(c3ccc(Br)cc3)C12 (configuration not stated) [5-(4-bromophenyl)-2-thioxo-2,3,5,8,9,10-hexahydropyrimido[4,5-b]quinoline-4,6(1H,7H)-dione] | > 64
12 | NC(=NNC=c1ccc(=C2C=CC(=O)C(C(=O)O)=C2)o1)N[N+](=O)[O-] [5-(5-{2-[amino(nitroimino)methyl]carbonohydrazonoyl}-2-furyl)-2-hydroxybenzoic acid] | 63.6
13 | CC(=O)C1=C(C)N=C(SCc2ccc(C#N)cc2)C(C#N)C1c1ccco1 (configuration not stated) [5-acetyl-2-[(4-cyanophenyl)methylsulfanyl]-4-(furan-2-yl)-6-methyl-1,4-dihydropyridine-3-carbonitrile] | > 64
14 | COc1ccc(Cn2c(Nc3cc(Cl)ccc3OC)c3[nH]cccc-3c2=O)cc1 [7-[(5-chloranyl-2-methoxy-phenyl)amino]-6-[(4-methoxyphenyl)methyl]-7H-pyrrolo[3,4-b]pyridin-5-one] | 14.4
15 | CN(C)[C@@H]1C(=O)C(C(N)=O)C(=O)[C@@]2(O)C(=O)C3C(=O)c4c(O)cccc4[C@@](C)(O)[C@H]3[C@H](O)[C@@H]12 (stereo partly drawn) [(2E,4S,4aR,5S,5aR,6S,12aS)-2-[azanyl(oxidanyl)methylidene]-4-(dimethylamino)-6-methyl-5,6,10,11,12a-pentakis(oxidanyl)-4,4a,5,5a-tetrahydrotetracene-1,3,12-trione] | 50
16 | CN(C)[C@@H]1C(=O)C(C(=O)NCN2CCCC2)C(=O)[C@@]2(O)C(=O)C3C(=O)c4c(O)cccc4[C@@](C)(O)C3CC12 (stereo partly drawn) [(2Z,4S,6S,12aS)-4-(dimethylamino)-6,10,11,12a-tetrahydroxy-2-[hydroxy-(1-pyrrolidinylmethylamino)methylidene]-6-methyl-4,4a,5,5a-tetrahydrotetracene-1,3,12-trione] | 12.3
17 | COc1ccc2nc(N3C(=O)C(=C4C(=O)Nc5ccccc54)NC3=S)sc2c1 [(3Z)-3-[1-(6-methoxy-1,3-benzothiazol-2-yl)-5-oxidanylidene-2-sulfanylidene-imidazolidin-4-ylidene]-1H-indol-2-one] | > 64
18 | O=C1C=CC(CN=Nc2nccs2)C=C1[N+](=O)[O-] (configuration not stated) [(4Z)-2-nitro-4-[(2-thiazolylhydrazo)methylidene]-1-cyclohexa-2,5-dienone] | 10.8
19 | COc1cc(C2C(C(=O)c3ccccc3)C(=O)C(=O)N2c2ccccn2)ccc1O (configuration not stated) [(4Z)-5-(3-methoxy-4-oxidanyl-phenyl)-4-[oxidanyl(phenyl)methylidene]-1-pyridin-2-yl-pyrrolidine-2,3-dione] | 50
20 | O=C1N=C(Nc2ccc(O)cc2)SC1=C1C(=O)Nc2ccccc21 [(5Z)-2-[(4-hydroxyphenyl)amino]-5-(2-oxidanylidene-1H-indol-3-ylidene)-1,3-thiazol-4-one] | 50
21 | O=[N+]([O-])c1cc(Br)c(O)c(CN=Nc2nnnn2-c2cccc3ccccc23)c1 [(6E)-2-bromo-6-[[2-(1-naphthalen-1-yltetrazol-5-yl)hydrazinyl]methylidene]-4-nitrocyclohexa-2,4-dien-1-one] | > 64
22 | O=NCC(=O)Nc1ccc(F)cc1 [MLS000036190] | > 64
23 | Cc1ccc(/C=C/C(=O)C2=C(O)N(C)C3(C)CC2c2ccccc2O3)cc1 (configuration not stated) [MLS000519940] | > 64
24 | Cc1ccc(-n2c(C)cc(CN=Nc3ccc([N+](=O)[O-])cn3)c2C)cc1 [MLS000552475] | > 64
25 | Cc1ccccc1C(=O)Nc1cccc(C(=O)N/N=C/C2C=C(Cl)C=C([N+](=O)[O-])C2=O)c1 (configuration not stated) [N-(3-{[(2E)-2-(5-chloro-2-hydroxy-3-nitrobenzylidene)hydrazino]carbonyl}phenyl)-2-methylbenzamide] | 50
26 | Cc1ccc(Nc2c3[nH]cccc-3c(=O)n2-c2ccccc2C)cc1C [SMR000028201] | 9.59
27 | C[N+](C)(C)c1ccc(CN=Nc2nc(Cl)c(C#N)c(Cl)c2Cl)cc1 [trimethyl-[4-[[(3,4,6-trichloro-5-cyanopyridin-2-yl)hydrazinylidene]methyl]phenyl]azanium;iodide] | > 64
